Consider four molecules from patent US20240398790A1 (ABBVIE INC., priority 2021, published 2024).

Series [1] concerns adult subjects with active ankylosing spondylitis (AS) who had an inadequate response to biologic disease-modifying anti-rheumatic drug therapy (bDMARD-IR). The experiment in a line: SELECT AXIS 2 Study 1, safety up to Week 14.
Series [2] has the same test system. As to the kind of experiment: SELECT AXIS 2 Study 1, Phase 3 placebo-controlled, efficacy at Week 14. The format is in vivo, human.
The subject of series [3] is bDMARD-naïve patients with AS who had an inadequate response to non-steroidal anti-inflammatory drugs (NSAIDs). To be noted: cited from earlier work.
Series [4] deals with adult subjects with active ankylosing spondylitis (AS) who had an inadequate response to biologic disease-modifying anti-rheumatic drug therapy (bDMARD-IR). To be noted: human, in vivo.
Series [5] has as its system AS. To be noted: literature; cited from earlier work.
[6] abbreviates: AESI up to Week 14, N = 211, listed as Upadacitinib.
Where [7] appears, read: AESI up to Week 14, N = 211, listed as upadacitinib freebase.
Where [8] appears, read: CTCAE V4, Double-Blind Period (Week 14).
Where [9] appears, read: up to Week 14, N = 211, listed as RINVOQ.

On to `CC[C@@H]1CN(C(=O)NCC(F)(F)F)C[C@@H]1c1cnc2cnc3[nH]ccc3n12` [upadacitinib, (3S,4R)-3-ethyl-4-(3H-imidazo[1,2-a]pyrrolo[2,3-e]pyrazin-8-yl)-N-(2,2,2-trifluoroethyl)pyrrolidine-1-carboxamide], for which, in series [1] (15 mg QD, up to Week 14, N = 211), the “Adverse event (AE), %” value is “(40.8) %”. Further, in series [1] (15 mg, through week 14), the “Serious infections, proportion of patients” value was found to be 2.4% and the “herpes zoster, proportion of patients” value turned out to be 0.9%. In series [1] (AESI up to Week 14, N = 211), the Active tuberculosis is recorded as 0 (0.0) n (%), the Anemia is listed as 3 (1.4) n (%), the Hepatic disorder is on record as 6 (2.8) n (%) and the Herpes zoster was 2 (0.9) n (%). In addition, in series [1] (AESI up to Week 14, N = 211), the Infection was 31 (14.7) n (%), the Lymphoma is 0 (0.0) n (%), the Lymphopenia was 1 (0.5) n (%) and the Malignancy result is recorded as “No malignancy”. Moreover, in series [1] (AESI up to Week 14, N = 211), the “Malignancy other than NMSC” value is 0 (0.0) n (%), the Neutropenia is on record as 6 (2.8) n (%), the “Non-melanoma skin cancer (NMSC)” value is recorded as 0 (0.0) n (%) and the Renal dysfunction is 0 (0.0) n (%). Besides, the Serious infection in series [1] (AESI up to Week 14, N = 211) is reported as 5 (2.4) n (%). In series [1] (setting [6]), the “Adjudicated MACE” value was 0 (0.0) n (%), the Adjudicated gastrointestinal perforation is given as 0 (0.0) n (%), the “Adjudicated venous thromboembolic events” value is listed as 0 (0.0) n (%) and the Malignancy is 0 (0.0) n (%). Further, in series [1] (setting [7]), the “Adjudicated MACE” value was “no events”, the Adjudicated gastrointestinal perforation entry is given as “no events”, the “Adjudicated venous thromboembolic events” value is “no events” and the Malignancy result is listed as “no events”. In series [1] (setting [8]), the “ALT (U/L) Grade 4 (>20.0 xULN)” value is 0/211, the “AST (U/L) Grade 4 (>20.0 xULN)” value is on record as 0/211, the “Creatinine (umol/L) Grade 3 (>3.0-6.0 xULN or >3.0 xBaseline)” value is given as 0/211 and the “Creatinine (umol/L) Grade 4 (>6.0 xULN)” value is 0/211. For the same molecule, in series [1] (setting [8]), the “Hemoglobin (g/L) Grade 3 (<80)” value was 0/211, the “Lymphocytes (10^9/L) Grade 4 (<0.2)” value is 0/211 and the “Neutrophils (10^9/L) Grade 4 (<0.5)” value was 0/211. In addition, the safety profile entry in series [1] (Phase 3 AS bDMARD-IR study) is given as “no new risks were identified”. Moreover, the “AE with reasonable possibility of being related to study treatment, %” value in series [1] (as assessed by investigator, up to Week 14, N = 211) was “(17.1) %”. Further, in series [1] (up to Week 14), the “hepatic disorders reported, nature” value is “mild or moderate transaminase elevations”. Further, in series [1] (up to Week 14, N = 211), the “AE leading to death, %” value is reported as “(0.0) %”; the “AE leading to withdrawal of study treatment, %” value is listed as “(0.0) %”; the “All deaths, %” value is on record as “(0.0) %”; the “Serious AE, %” value is listed as “(2.8) %”. Moreover, the “Severe AE, %” value in series [1] (up to Week 14, N = 211) is given as “(3.3) %”. Further, in series [1] (setting [9]), the “AE leading to withdrawal of study treatment, %” value is 0% and the “Serious AE, %” value was found to be 2.8%. For the same molecule, in series [2], the “AS QoL, UPA-PBO” value was −3.07; the “ASDAS(CRP) Low Disease Activity, UPA-PBO” value amounted to 34.0; the “ASDAS(CRP), UPA-PBO” value is reported as −1.02; the “BASFI (Function), UPA-PBO” value was −1.17. Besides, in series [2], the “BASMI (Mobility), UPA-PBO” value is on record as −0.32; the “MASES (Enthesitis)” value was −2.6; the “MASES (Enthesitis), UPA-PBO” value was −1.5; the “MRI Spine SPARCC, UPA-PBO” value was −3.90. In series [2], the “Nocturnal Back Pain, UPA-PBO” value is −1.7 and the “Total Back Pain, UPA-PBO” value was −1.53. Also, in series [2] (15 mg), the “AS QoL” value is given as −5.10, the “ASDAS(CRP)” value is reported as −1.52, the “BASFI (Function)” value is reported as −2.26 and the “BASMI (Mobility)” value is on record as −0.48. For the same molecule, in series [2] (15 mg), the “MRI Spine SPARCC” value is on record as −3.95, the “Nocturnal Back Pain” value is −3.2, the “Total Back Pain” value was −3.00 and the “onset of effect in ASAS40” value turned out to be 4 Week. Further, in series [2] (15 mg QD, Week 14, NRI-MI), the “ASDAS(CRP) Low Disease Activity” value is 44.1%. The “ASAS40 response at Week 14 (primary endpoint) versus placebo” value in series [3] (SELECT-AXIS 1, Week 14) is “significantly greater achievement”. The “efficacy once achieved at Week 14, over time” value in series [3] (SELECT-AXIS 1, up to and including Week 64) is listed as “sustained or improved over time”. Besides, the “Opportunistic infection excluding tuberculosis and herpes zoster” value in series [4] was 0 (0.0) n (%). In series [4] (14 weeks), the “COVID-19 related AE, %” value is on record as “(5.7) %”.
Turning to tocilizumab: IL-6 inhibitor, the “efficacy achieved in AS” value in series [5] was “low efficacy”.
On to ustekinumab: IL-12/23 inhibitor, for which the “efficacy achieved in AS” value in series [5] is listed as “low efficacy”.

B1: sarilumab: IL-6 inhibitor (antibody, chains of the INN, looked up, V domains shown)
VH: EVQLVESGGGLVQPGRSLRLSCAASRFTFDDYAMHWVRQAPGKGLEWVSGISWNSGRIGYADSVKGRFTISRDNAENSLFLQMNGLRAEDTALYYCAKGRDSFDIWGQGTMVTVSS
VL: DIQMTQSPSSVSASVGDRVTITCRASQGISSWLAWYQQKPGKAPKLLIYGASSLESGVPSRFSGSGSGTDFTLTISSLQPEDFASYYCQQANSFPYTFGQGTKLEIK
For the molecule B1, in series [5], the “efficacy achieved in AS” value is reported as “low efficacy”.
